This test relates to 991263-137-R1-J2-PDC complex spheroid viability. The test is described as follows: Anticancer human tumor 991263-137-R1-J2-PDC patient-derived colon adenocarcinoma cell line growth inhibition [POLQ]. The settings on record: for viability, T/C: stronger effect = lower value. How it is done:
Multicellular complex tumor spheroid response to Polymerase (POL) inhibitors (novobiocin, ART-558, RP6685) in combination with a variety of drugs and investigational agents in selected tumor cell lines
The POL inhibitors (novobiocin, ART-558, and RP6685) were evaluated both individually and in combination with standard of care and investigational anticancer small molecules within a complex spheroid model of solid tumors. . Complex spheroids include a stromal component modeled by human endothelial cells (HUVEC) and fibroblasts modeled by human mesenchymal stem cells (MSCs). The concentration ranges selected for each drug and investigational agent were based upon clinically achievable concentrations if the clinical Cmax of the agent was known.
Compounds. The drugs and investigational agents: novobiocin (NSC847541), ART-558 (NSC835418), RP-6685 (NSC848927), peposertib (NSC802822), ceralasertib (NSC780249), elimusertib (NSC800525), camonsertib (NSC841442), AZD-1390 (NSC803789), olaparib (NSC753686), talazoparib (NSC767125), rucaparib (NSC756644), sotorasib (NSC818433), MRTX-1133 (NSC836407), SN-38 (NSC673596), topotecan (NSC609699), epotoside (NSC141540), doxorubicin (NSC123127), gemcitabine (NSC613327), 5-fluorouracil (NSC19893), paclitaxel (NSC125973), vemurafenib (NSC761431), MSA-2 (NSC828583), SN-011 (NSC837082), adavosertib (NSC754352), prexasertib (NSC758257), carboplatin (NSC241240) and oxaliplatin (NSC266046), were obtained from the National Cancer Institute (NCI) Developmental Therapeutics Program Chemical Repository (21). The FDA-approved anticancer drug set is available from the Developmental Therapeutics Program at https://dtp.cancer.gov/organization/dscb/obtaining/. […] The stock solutions were prepared in dimethyl sulfoxide (DMSO, Sigma-Aldrich, St. Louis, MO, cat. D2650), except for the platinum compounds which were prepared in saline (Quality Biological, Gaithersburg, MD, cat. 114-055-101), at 800-fold the tested concentration and stored at -70 degrees C prior to their use. All drugs and investigational agents were tested over a range starting from a high concentration at or near the clinical Cmax and decreasing in half-log increments. If the clinical Cmax for an agent had not been determined, the highest concentration tested was 10 microM, except for SN-38, which was tested at a high concentration of 1 microM.
Cell Culture. All cells were maintained in an incubator at 37 degrees C and 5% CO2 with 95% humidity. The PDC lines were cultured according to standard operating procedures established by the NCI PDMR (https://pdmr.cancer.gov). Table 3 of the manuscript, lists the cell lines along with the number of the three cell types plated to form the mct-spheroids and media for tumor cell growth. After thawing, all PDC lines, except 997537-175-T-J1-PDC and 415267-285-R-J2-PDC, were cultured in Matrigel-coated flasks prepared with a working solution of 1X Ham's F-12 nutrient mix, without supplementation (Thermo Fisher Scientific, cat. 11765054), 100 U/mL penicillin-streptomycin (Thermo Fisher Scientific, cat. 15140122), and 2.5% Matrigel (Corning Inc., Corning, NY, cat. 354248) for the first three passages. The two PDC lines 997537-175-T-J1-PDC and 415267-285-R-J2-PDC were cultured on uncoated flasks. The 857933-349-R-J2-PDC line was cultured in 6C/Colon 1B media containing advanced DMEM/F-12 (Thermo Fisher Scientific, cat. 12634028), 10 mM HEPES (Thermo Fisher Scientific, cat. 15630080), 1X GlutaMAX supplement (Thermo Fisher Scientific, cat. 35050061), 0.1 mg/mL primocin (InvivoGen, San Diego, CA, cat. ant-pm-2), 10% defined fetal bovine serum, heat inactivated (HyClone Laboratories Inc., Logan, UT, cat. SH30070.03HI), 50% L-WRN conditioned media (ATCC, cat. CRL-3276), 1.25 mM N-Acetyl-L-cysteine (Sigma-Aldrich, cat. A9165), 10 mM nicotinamide (Sigma-Aldrich, cat. N0636), 1X B-27 supplement (Thermo Fisher Scientific, cat. 17504044), 1X N-2 supplement (Thermo Fisher Scientific, cat. […]

SMILES strings stand for the structures. Where “and” joins values, the source holds several entries; their conditions need not be identical. Equal values may be shown once.
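Further: spheroids exposed to compounds for 7 days before readout.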

Regarding `CCc1c2c(nc3ccc(O)cc13)-c1cc3c(c(=O)n1C2)COC(=O)[C@]3(O)CC`, the viability, T/C (in general, the result in the treated group divided by that in the control group, in per cent) by setting is: (compound 0.00316 µM) 88.8% and 83.4% and 108%; (compound 0.01 µM) 80% and 74.9% and 74%; (compound 0.0316 µM) 63% and 64.4% and 51.9%; (compound 0.1 µM) 49.8% and 45.2% and 54.4%; (compound 0.316 µM) 37.3% and 37.2% and 36.9%; (compound 1 µM) 25.2% and 26.9% and 20.9%. Also, the half-maximal inhibitory concentration (IC50) – broadly, the concentration at which inhibition is half-maximal – (curve of compound) is 99 nM and 83.3 nM and 93.9 nM.

As to `C=CC(=O)N1CCN(c2nc(=O)n(-c3c(C)ccnc3C(C)C)c3nc(-c4c(O)cccc4F)c(F)cc23)C(C)C1` (configuration not stated), the viability, T/C (compound 0.0316 µM) is 119% and 99.2% and 102%; the viability, T/C (compound 0.1 µM) was 104% (2×) and 89.8%; the viability, T/C (compound 0.316 µM) was 107% and 105% and 103%; the viability, T/C (compound 1 µM) is 118% and 107% and 104%; the viability, T/C (compound 10 µM) is 104% and 108% and 110%. Further, the IC50 (curve of compound) is over 10000 nM.

For the compound `COc1cccc(OCCCN)c1-c1cc(Nc2cnc(C#N)cn2)n[nH]1`, the viability, T/C (compound 0.00316 µM) was 89.6% and 99.7% and 88.6%; the viability, T/C (compound 0.01 µM) is 98.1% and 107% and 85.7%; the viability, T/C (compound 0.0316 µM) is 101% and 94.9% and 94.6%; the viability, T/C (compound 0.316 µM) was 43.2% and 53.1% and 61.2%; the viability, T/C (compound 1 µM) was 40.1% and 42.8% and 46.3%. The IC50 (curve of compound) was 90.9 nM and 464 nM and 750 nM.

Consider `CC(C)n1c(=O)n(C)c2cnc3cc(F)c(-c4ccc(OCCCN5CCCCC5)nc4)cc3c21`, for which the viability, T/C was 101% and 103% and 89.4% (compound 0.0316 µM); 103% and 104% and 95.9% (compound 0.1 µM); 85.1% and 103% and 99.6% (compound 0.316 µM); 110% and 121% and 129% (compound 1 µM); 101% and 104% and 89.3% (compound 3.16 µM). Further, for the setting “curve of compound”, the IC50 is over 10000 nM.

In the case of `Cn1ncnc1[C@H]1c2n[nH]c(=O)c3cc(F)cc(c23)N[C@@H]1c1ccc(F)cc1`, the viability, T/C reads like this: (compound 0.000316 µM) 102% and 97.3% and 87.3%; (compound 0.001 µM) 93.6% and 88.1% and 88.5%; (compound 0.00316 µM) 102% and 104% and 109%; (compound 0.01 µM) 109% and 105% and 119%; (compound 0.0316 µM) 89.6% and 101% and 84.5%; (compound 0.1 µM) 106% and 112% and 105%. Further, the IC50 (curve of compound) is over 100 nM.

As to `C=CCn1c(=O)c2cnc(Nc3ccc(N4CCN(C)CC4)cc3)nc2n1-c1cccc(C(C)(C)O)n1` + Cc1cccc(N(C)C(=O)C2C(O)CCN2c2nc(C)cc(C(F)(F)F)c2C#N)c1, the IC50 is over 1000 nM (curve of first compound, second compound 0.0316 µM); over 1000 nM (curve of first compound, second compound 0.1 µM); over 1000 nM (curve of first compound, second compound 0.316 µM); over 1000 nM (curve of first compound, second compound 1 µM); over 1000 nM (curve of first compound, second compound 3.16 µM); over 1000 nM (curve of first compound, second compound 10 µM). Further, the viability, T/C (second compound 0.0316 µM, first compound 0.00316 µM) was found to be 103%; the viability, T/C (second compound 0.0316 µM, first compound 0.01 µM) was determined as 114%; the viability, T/C (second compound 0.0316 µM, first compound 0.0316 µM) was found to be 103%; the viability, T/C (second compound 0.0316 µM, first compound 0.1 µM) is 115%; the viability, T/C (second compound 0.0316 µM, first compound 0.316 µM) is 101%; the viability, T/C (second compound 0.0316 µM, first compound 1 µM) amounted to 93%. Moreover, the viability, T/C runs as follows: (second compound 0.1 µM, first compound 0.00316 µM) 108%; (second compound 0.1 µM, first compound 0.01 µM) 110%; (second compound 0.1 µM, first compound 0.0316 µM) 107%; (second compound 0.1 µM, first compound 0.1 µM) 102%; (second compound 0.1 µM, first compound 0.316 µM) 108%; (second compound 0.1 µM, first compound 1 µM) 90.1%. Moreover, the viability, T/C came out at 115% (second compound 0.316 µM, first compound 0.00316 µM); 103% (second compound 0.316 µM, first compound 0.01 µM); 98.1% (second compound 0.316 µM, first compound 0.0316 µM); 119% (second compound 0.316 µM, first compound 0.1 µM); 108% (second compound 0.316 µM, first compound 0.316 µM); 102% (second compound 0.316 µM, first compound 1 µM). Besides, the viability, T/C was 99.1% (second compound 1 µM, first compound 0.00316 µM); 101% (second compound 1 µM, first compound 0.01 µM); 96% (second compound 1 µM, first compound 0.0316 µM); 97.6% (second compound 1 µM, first compound 0.1 µM); 110% (second compound 1 µM, first compound 0.316 µM); 94.2% (second compound 1 µM, first compound 1 µM). The viability, T/C was 100% (second compound 3.16 µM, first compound 0.00316 µM); 101% (second compound 3.16 µM, first compound 0.01 µM); 98.4% (second compound 3.16 µM, first compound 0.0316 µM); 101% (second compound 3.16 µM, first compound 0.1 µM); 103% (second compound 3.16 µM, first compound 0.316 µM); 98.3% (second compound 3.16 µM, first compound 1 µM). Further, the viability, T/C is, setting by setting: (second compound 10 µM, first compound 0.00316 µM) 98.8%; (second compound 10 µM, first compound 0.01 µM) 110%; (second compound 10 µM, first compound 0.0316 µM) 99.5%; (second compound 10 µM, first compound 0.1 µM) 106%; (second compound 10 µM, first compound 0.316 µM) 105%; (second compound 10 µM, first compound 1 µM) 95.2%.

Turning to `CC1COCCN1c1cc(-c2ccnn2C)c2ccnc(-c3ccn[nH]3)c2n1` (configuration not stated), the viability, T/C was 112% and 99.9% and 100% (compound 0.0316 µM); 86.5% and 89.2% and 93.4% (compound 0.1 µM); 81.6% and 77.2% and 83% (compound 0.316 µM); 52.1% and 41.8% and 54.8% (compound 1 µM); 35.4% and 24% and 43.9% (compound 3.16 µM); 28.9% and 25.4% and 31.9% (compound 10 µM). Moreover, the IC50 (curve of compound) was 1350 nM and 759 nM and 1690 nM.

On to `Nc1ccn(C2OC(CO)C(O)C2(F)F)c(=O)n1` (configuration not stated), for which the viability, T/C by setting is: (compound 0.0316 µM) 90.8% and 85.4% and 75.5%; (compound 0.1 µM) 53.7% and 74.1% and 58.9%; (compound 0.316 µM) 69% and 61.1% and 58.6%; (compound 1 µM) 58.6% and 60.4% and 47.9%; (compound 3.16 µM) 37.6% and 56.2% and 37.2%; (compound 10 µM) 40.8% and 47% and 37.3%.
